According to US9732067B2, “Compounds and methods for activating the apoptotic arm of the unfolded protein response” (University of Kansas, priority 2012, dated 2017):
Like-named read-outs stand apart in the source and are kept apart here. Each block holds one compound with its values, some of them ahead of it.

Tests used:
[1] = tested on: PERK-eIF2α-CHOP (apoptotic) arm of the Unfolded Protein Response pathway; assay: UPR-CHOP primary assay (CHO-CHOP luciferase reporter); type: cell-based
Experimental: The purpose of this assay was to detect activators of the PERK-eIF2α-CHOP (apoptotic) arm of the Unfolded Protein Response pathway.
Cells were passaged twice a week. […] Once the cells had reached confluency, old medium was aspirated and the flasks were washed with 20 mL DPBS per T225 flask. Cells were left in DPBS for about 30 seconds. Subsequently, 6.5 mL 0.05% trypsin solution was added into the flask and the flask was rocked gently so that the solution covered the surface. The cells were allowed to detach by incubating at room temperature for about 4 minutes. The flask was washed with […] fresh growth media and the cell suspension was collected in a 50 mL sterile conical tube. The collected cells were centrifuged at 900 rpm for 5 minutes and re-suspended in 1 mL fresh growth media. An additional 19 mL of growth media was added and the tube was mixed gently. The cell suspension was filtered with a cell strainer and the cells were counted.
As above, cells were grown to confluency, washed, and detached with 5 mL trypsin solution for 4 minutes at room temperature. The flask was washed with 25 mL fresh growth media and the cell suspension was collected in a 50 mL sterile conical tube. The cells were centrifuged at 500 rpm for 10 minutes and re-suspended carefully in 1 mL fresh assay medium. An additional 19 mL of assay media was added the cells were mixed gently. The cell suspension was filtered with a cell strainer and the number of cells was counted. Cell density was adjusted to 1.0×10^5 cells/mL in medium.
On day 1, cell suspensions were prepared and 500 cells in 5 μL of assay media were plated in the wells of columns 1-48 of a 1536-well assay plate. The plates were centrifuged at 500 rpm for 1 minute and subsequently incubated at 37° C., 100% relative humidity, 5% CO2 for 16-18 hours.
[…] […] The plates were centrifuged at 1000 rpm for 1 minute and subsequently incubated at 37° C., 100% relative humidity, 5% CO2 for 6 hours.
Following the 6-hour incubation the plate was incubated for 10 minutes at room temperature and 3 μL of STEADY-GLO was added to each well. The plates were centrifuged at 2000 rpm for 2 minutes and subsequently incubated at room temperature for 10 minutes. Luminescence was measured with a luminometer.
The MLPCN library of approximately 330,000 compounds was tested in the UPR-CHOP primary screen utilizing a luciferase-based reporter expressed in a CHO cell line to identify activators of the CHOP apoptotic pathway. […]

[2] = tested on: IRE1/XBP1 (adaptive) UPR sub-pathway; assay: UPR XBP1 assay (CHO-XBP1-luciferase reporter cell line); type: cell-based
Experimental: A high-throughput screen of the NIH Molecular Libraries Small Molecule Repository (MLSMR) of >350,000 compounds was carried out using complementary cell-based reporter assays using stably transfected CHO-K1 cells that specifically identify activators of the PERK/eIF2α/CHOP (apoptotic), or the IRE1/XBP1 (adaptive) UPR sub-pathways.
The liquid samples were first confirmed at a single-point concentration of 10 μM in the […]. Of the liquid samples, 674 compounds were confirmed to have at least 32% activity at a 10 μM assay concentration. The confirmed compounds were further tested in dose response in the UPR-CHOP primary assay to obtain EC50 values. In addition, confirmed compounds were also dosed out in the CHO-XBP1-luciferase reporter cell line to identify compounds that were selective for the CHOP apoptotic over the adaptive XBP1 pathway.
The high throughput screening effort and subsequent validation produced two chemotypes, which were further explored by SAR analysis for potency, selectivity, the absence of reactive functionality, synthetic accessibility, physiochemical properties, and hit rate in unrelated PUBCHEM assays. SAR testing of re-constituted powders encompassed dose response testing of compounds in two assays: UPR-CHOP and UPR-XBP1 assays.

MEF with wild-type CHOP = assay: Proliferation / cytotoxicity (ATPLite) in MEF with wild-type CHOP; type: cell-based, mouse; conditions: Mus musculus; Table 5; MEF, ATPLite
Experimental: (§1) Several of the analogs derived from these changes were evaluated in secondary assays as they met the preliminary probe criteria for UPR-CHOP and UPR-XBP1 activity. Select compounds were assessed in a dose response manner for the ability to suppress proliferation in both the CHOP wild-type and CHOP knockout murine embryonic fibroblasts (−/− MEF KO CHOP)(Table 2).
(§2) It was determined whether ML291 and ML291 congeners would induce cell death (cytotoxicity as measured by ATPLite®, which measures production of ATP from living cells) in cells where these pathways are operant, but not activate them in the absence of the pathways.

−/− MEF KO CHOP = assay: Proliferation / cytotoxicity (ATPLite) in MEF with CHOP KO; type: cell-based; conditions: Mus musculus; Table 5; MEF, ATPLite
Experimental: as §1, §2

[3] = tested on: CHOP (apoptotic) and XBP1 (adaptive) arms of the UPR; conditions: prior screen, non-selective hits; cited from earlier work
chickens = conditions: grain from treated crops; cited from earlier work
[4] = Table 9, average of four runs, F12 HAMs, 10% hi-FBS, read-out: EC50 UPR CHOP Assay
[5] = Table 9, average of four runs, F12 HAMs, 10% hi-FBS, read-out: EC50 UPR XBP1 Assay
[6] = Cricetulus griseus, read-out: CHOP EC50

EC50 [2, 5]: > 80 µM
Structure (SMILES): CC1CCN(S(=O)(=O)c2ccc(NC(=O)c3ccc([N+](=O)[O-])o3)cc2)CC1 [Analog 1]
EC50 [1, 4]: 0.76 µM

EC50 [2, 5]: > 80 µM
Structure (SMILES): O=C(Nc1ccc(S(=O)(=O)N2CCC(F)CC2)cc1)c1ccc([N+](=O)[O-])o1 [Analog 3]
EC50 [1, 4]: 0.43 µM

EC50 [2, 5]: > 80 µM
Structure (SMILES): CC(C)(C)C1CCN(S(=O)(=O)c2ccc(NC(=O)c3ccc([N+](=O)[O-])o3)cc2)CC1 [Analog 4]
EC50 [1, 4]: 0.65 µM

EC50 [2, 5]: > 80 µM
Structure (SMILES): CC1(C)CCN(S(=O)(=O)c2ccc(NC(=O)c3ccc([N+](=O)[O-])o3)cc2)CC1 [Analog 5]
EC50 [1, 4]: 0.77 µM

CHOP potency / activity [1]: low micromolar | EC50 ([2]; listed as SID104222717, read-out: XBP1 EC50): > 71 µM | EC50 ([2]; read-out: XBP1 EC50): 70 to 80 µM
Structure (SMILES): O=C(Nc1ccc(S(=O)(=O)N2CCOCC2)cc1)c1ccc([N+](=O)[O-])o1 [Entry 1 (Table 1)]
selectivity (XBP1 over CHOP) [1]: 35 fold | EC50 [1, 6]: 2.02 µM

Structure (SMILES): O=C(Nc1ccc(S(=O)(=O)N2CCOCC2)cc1)c1ccc([N+](=O)[O-])s1 [Entry 2 (Table 3)]
loss in CHOP potency versus 5-nitro-2-furan parent [1]: 6 fold

Structure (SMILES): O=C(Nc1ccc(S(=O)(=O)N2CCCCC2)cc1)c1ccc([N+](=O)[O-])o1 [Entry 8 (Table 1), N-(4-((piperidin-1-yl)sulfonyl)phenyl)-5-nitrofuran-2-carboxamide]
IC50 (MEF with wild-type CHOP): 7.84 ± 1.2 µM | IC50 (−/− MEF KO CHOP): > 20 µM

Structure (SMILES): O=C(Nc1ccc(S(=O)(=O)N2CCC(F)CC2)cc1)c1ccc([N+](=O)[O-])o1 [Entry 10 (Table 1), N-(4-((4-fluoropiperidin-1-yl)sulfonyl)phenyl)-5-nitrofuran-2-carboxamide]
IC50 (MEF with wild-type CHOP): 17.5 ± 2.69 µM | IC50 (−/− MEF KO CHOP): > 20 µM

Structure (SMILES): CC1CCN(S(=O)(=O)c2ccc(NC(=O)c3ccc([N+](=O)[O-])o3)cc2)CC1 [Entry 12 (Table 1), N-(4-((4-methylpiperidin-1-yl)sulfonyl)phenyl)-5-nitrofuran-2-carboxamide]
IC50 (MEF with wild-type CHOP): 4.57 ± 1.24 µM | IC50 (−/− MEF KO CHOP): 16.3 ± 0.99 µM

Structure (SMILES): CC1(C)CCN(S(=O)(=O)c2ccc(NC(=O)c3ccc([N+](=O)[O-])o3)cc2)CC1 [Entry 13 (Table 1), N-(4-((4,4-dimethylpiperidin-1-yl)sulfonyl)phenyl)-5-nitrofuran-2-carboxamide]
EC50 [1, 6]: 0.5 µM | XBP1 liability [2]: no discernable XBP1 liability | IC50 (MEF with wild-type CHOP): 3.02 ± 0.6 µM | IC50 (−/− MEF KO CHOP): 9.17 ± 3.34 µM

Structure (SMILES): CC(C)(C)C1CCN(S(=O)(=O)c2ccc(NC(=O)c3ccc([N+](=O)[O-])o3)cc2)CC1 [Entry 14 (Table 1), N-(4-((4-tert-butylpiperidin-1-yl)sulfonyl)phenyl)-5-nitrofuran-2-carboxamide]
IC50 (MEF with wild-type CHOP): 1.36 ± 0.54 µM | IC50 (−/− MEF KO CHOP): 2.05 ± 0.29 µM

Structure (SMILES): CN(C)C(=S)SSC(=S)N(C)C [NSC-1771]
induction of the UPR arms [3]: potently induce both the CHOP (apoptotic) and XBP1 (adaptive) arms of the UPR | toxicity in chickens (chickens): cause dyschondoplasia in the offspring of chickens

CHOP potency / activity [1]: low micromolar | EC50 ([2]; read-out: XBP1 EC50): 70 to 80 µM
Structure (SMILES): O=C(Nc1nc2c(F)cc(F)cc2s1)c1ccccn1 [SID 104222735]

Structure (SMILES): CCN(CC)C(=S)SSC(=S)N(CC)CC [disulfiram, bis(diethylthiocarbamoyl)disulfide]
induction of the UPR arms [3]: potently induce both the CHOP (apoptotic) and XBP1 (adaptive) arms of the UPR
